According to US20090018134A1, “Compounds - 945” (AstraZeneca AB, priority 2007, published 2009):

target: T1, mTOR (Homo sapiens, UniProt P42345); assay: In Vitro mTOR Kinase Assay (Echo), Test (a)(ii); type: biochemical; details: table of enzyme assay Test (a)(ii); read-out: Test (a)(ii) IC50
T1 construct: FLAG; made in house
Method in brief: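 AlphaScreen read-out: biotinylated substrate phosphorylation was detected with anti-p70 S6K (T389) 1A5 antibody, Protein A acceptor and streptavidin donor beads after overnight dark incubation at room temperature. Enzyme was FLAG-mTOR 1362-2549 from stable HEK293 cells.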

T1 sequence (P42345 1362-2549): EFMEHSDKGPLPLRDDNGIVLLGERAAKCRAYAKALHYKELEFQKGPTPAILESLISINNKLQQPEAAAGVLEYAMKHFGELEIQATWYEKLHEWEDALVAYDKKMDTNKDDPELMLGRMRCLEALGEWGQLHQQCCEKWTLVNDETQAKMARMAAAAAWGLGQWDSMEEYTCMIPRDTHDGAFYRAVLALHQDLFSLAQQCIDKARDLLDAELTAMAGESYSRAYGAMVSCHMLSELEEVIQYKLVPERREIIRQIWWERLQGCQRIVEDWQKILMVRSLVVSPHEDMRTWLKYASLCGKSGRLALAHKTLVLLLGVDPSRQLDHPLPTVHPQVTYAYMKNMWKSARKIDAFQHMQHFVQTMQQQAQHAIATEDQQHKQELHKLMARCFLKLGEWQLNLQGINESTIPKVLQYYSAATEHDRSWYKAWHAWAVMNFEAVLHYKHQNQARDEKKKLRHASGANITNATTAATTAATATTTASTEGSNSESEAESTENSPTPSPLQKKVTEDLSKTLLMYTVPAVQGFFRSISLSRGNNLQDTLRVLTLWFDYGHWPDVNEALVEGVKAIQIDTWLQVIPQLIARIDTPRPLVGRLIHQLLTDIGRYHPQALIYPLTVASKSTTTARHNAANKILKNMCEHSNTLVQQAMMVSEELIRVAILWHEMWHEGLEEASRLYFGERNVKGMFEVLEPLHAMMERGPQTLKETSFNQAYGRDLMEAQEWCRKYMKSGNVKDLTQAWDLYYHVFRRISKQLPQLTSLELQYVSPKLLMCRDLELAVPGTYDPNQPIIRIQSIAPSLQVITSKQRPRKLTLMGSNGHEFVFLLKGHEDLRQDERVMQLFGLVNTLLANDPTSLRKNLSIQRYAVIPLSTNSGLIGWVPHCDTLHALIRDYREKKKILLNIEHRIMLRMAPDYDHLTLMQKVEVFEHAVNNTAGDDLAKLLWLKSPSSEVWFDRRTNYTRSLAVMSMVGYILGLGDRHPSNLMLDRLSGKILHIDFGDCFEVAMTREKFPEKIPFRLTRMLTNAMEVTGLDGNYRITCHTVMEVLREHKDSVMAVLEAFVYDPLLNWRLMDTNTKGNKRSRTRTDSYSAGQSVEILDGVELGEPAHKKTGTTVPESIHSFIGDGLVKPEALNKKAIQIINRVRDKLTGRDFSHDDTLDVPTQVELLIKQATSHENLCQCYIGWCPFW

Row | SMILES | IC50 [nM]
1 | C[C@H]1COCCN1c1cc(C2(S(C)(=O)=O)CCOCC2)nc(-c2ccc(NC(=O)NCCO)cc2)n1 [Example 23c, 3-(2-hydroxyethyl)-1-[4-[4-[(3S)-3-methylmorpholin-4-yl]-6-(4-methylsulfonyloxan-4-yl)pyrimidin-2-yl]phenyl]urea] | 0.831
2 | C[C@H]1COCCN1c1cc(C2(S(=O)(=O)C3CC3)CCOCC2)nc(-c2ccc(NC(=O)NCCN(C)C)cc2)n1 [Example 23g, 1-[4-[4-(4-cyclopropylsulfonyloxan-4-yl)-6-[(3S)-3-methylmorpholin-4-yl]pyrimidin-2-yl]phenyl]-3-(2-dimethylaminoethyl)urea] | 1210
3 | C[C@H]1COCCN1c1cc(C2(S(=O)(=O)c3ccc(Cl)cc3)CCOCC2)nc(-c2ccc(NC(=O)NCCO)cc2)n1 [Example 23l, 1-[4-[4-[4-(4-chlorophenyl)sulfonyloxan-4-yl]-6-[(3S)-3-methylmorpholin-4-yl]pyrimidin-2-yl]phenyl]-3-(2-hydroxyethyl)urea] | 8.88
4 | C[C@H]1COCCN1c1cc(C2(S(=O)(=O)c3ccc(Cl)cc3)CCOCC2)nc(-c2ccc(NC(=O)Nc3cnn(C)c3)cc2)n1 [Example 23m, 1-[4-[4-[4-(4-chlorophenyl)sulfonyloxan-4-yl]-6-[(3S)-3-methylmorpholin-4-yl]pyrimidin-2-yl]phenyl]-3-(1-methylpyrazol-4-yl)urea] | 57.7
5 | C[C@H]1COCCN1c1cc(C2(S(=O)(=O)c3ccc(Cl)cc3)CCOCC2)nc(-c2ccc(NC(=O)NC3CC3)cc2)n1 [Example 24, 1-[4-[4-[4-(4-Chlorophenyl)sulfonyloxan-4-yl]-6-[(3S)-3-methylmorpholin-4-yl]pyrimidin-2-yl]phenyl]-3-cyclopropylurea] | 5.17
6 | Cc1csc(S(=O)(=O)C2(c3cc(N4CCOC[C@@H]4C)nc(-c4ccc(NC(=O)NC5CC5)cc4)n3)CC2)n1 [Example 25, 3-Cyclopropyl-1-[4-[4-[(3S)-3-methylmorpholin-4-yl]-6-[1-[(4-methyl-1,3-thiazol-2-yl)sulfonyl]cyclopropyl]pyrimidin-2-yl]phenyl]urea] | 1.55
7 | Cc1csc(S(=O)(=O)C2(c3cc(N4CCOC[C@@H]4C)nc(-c4ccc(NC(=O)NC5CCC5)cc4)n3)CC2)n1 [Example 25a, 3-cyclobutyl-1-[4-[4-[(3S)-3-methylmorpholin-4-yl]-6-[1-[(4-methyl-1,3-thiazol-2-yl)sulfonyl]cyclopropyl]pyrimidin-2-yl]phenyl]urea] | 2.24
8 | Cc1csc(S(=O)(=O)C2(c3cc(N4CCOC[C@@H]4C)nc(-c4ccc(NC(=O)Nc5ccccn5)cc4)n3)CC2)n1 [Example 25b, 1-[4-[4-[(3S)-3-methylmoprholin-4-yl]-6-[1-[(4-methyl-1,3-thiazol-2-yl)sulfonyl]cyclopropyl]pyrimidin-2-yl]phenyl]-3-pyridin-2-ylurea] | 0.817
9 | Cc1csc(S(=O)(=O)C2(c3cc(N4CCOC[C@@H]4C)nc(-c4ccc(NC(=O)NCC(C)C)cc4)n3)CC2)n1 [Example 25c, 1-[4-[4-[(3S)-3-methylmorpholin-4-yl]-6-[1-[(4-methyl-1,3-thiazol-2-yl)sulfonyl]cyclopropyl]pyrimidin-2-yl]phenyl]-3-(2-methylpropyl)urea] | 3.85
10 | CCNC(=O)Nc1ccc(-c2nc(N3CCOC[C@@H]3C)cc(C3(S(=O)(=O)c4nc(C)cs4)CC3)n2)cc1 [Example 25e, 1-ethyl-3-[4-[4-[(3S)-3-methylmorpholin-4-yl]-6-[1-[(4-methyl-1,3-thiazol-2-yl)sulfonyl]cyclpropyl]pyrimidin-2-yl]phenyl]urea] | 0.277
11 | CNC(=O)Nc1ccc(-c2nc(N3CCOC[C@@H]3C)cc(C3(S(=O)(=O)c4nc(C)cs4)CC3)n2)cc1 [Example 25i, 3-methyl-1-[4-[4-[(3S)-3-methylmorpholin-4-yl]-6-[1-[(4-methyl-1,3-thiazol-2-yl)sulfonyl]cyclopropyl]pyrimidin-2-yl]phenyl]urea] | 1
12 | Cc1csc(S(=O)(=O)C2(c3cc(N4CCOC[C@@H]4C)nc(-c4ccc(NC(=O)NC(C)(C)CO)cc4)n3)CC2)n1 [Example 25k, 3-(1-hydroxy-2-methylpropan-2-yl)-1-[4-[4-[(3S)-3-methylmorpholin-4-yl]-6-[1-[(4-methyl-1,3-thiazol-2-yl)sulfonyl]cyclopropyl]pyrimidin-2-yl]phenyl]urea] | 2.92
13 | Cc1csc(S(=O)(=O)C2(c3cc(N4CCOC[C@@H]4C)nc(-c4ccc(NC(=O)NCCCO)cc4)n3)CC2)n1 [Example 25l, 3-(3-hydroxypropyl)-1-[4-[4-[(3S)-3-methylmorpholin-4-yl]-6-[1-[(4-methyl-1,3-thiazol-2-yl)sulfonyl]cyclopropyl]pyrimidin-2-yl]phenyl]urea] | 0.956
14 | Cc1csc(S(=O)(=O)C2(c3cc(N4CCOC[C@@H]4C)nc(-c4ccc(NC(=O)Nc5cnn(C)c5)cc4)n3)CC2)n1 [Example 25m, 1-[4-[4-[(3S)-3-methylmorpholin-4-yl]-6-[1-[(4-methyl-1,3-thiazol-2-yl)sulfonyl]cyclopropyl]pyrimidin-2-yl]phenyl]-3-(1-methylpyrazol-4-yl)urea] | 0.25
15 | C[C@H]1COCCN1c1cc(C2(S(=O)(=O)C3CCCCC3)CC2)nc(-c2ccc(NC(=O)NC3CC3)cc2)n1 [Example 26, 1-[4-[4-(1-Cyclohexylsulfonylcyclopropyl)-6-[(3S)-3-methylmorpholin-4-yl]pyrimidin-2-yl]phenyl]-3-cyclopropylurea] | 6.05
16 | C[C@H]1COCCN1c1cc(C2(S(=O)(=O)C3CCCCC3)CC2)nc(-c2ccc(NC(=O)NC3CCC3)cc2)n1 [Example 26a, 3-cyclobutyl-1-[4-[4-(1-cyclohexylsulfonylcyclopropyl)-6-[(3S)-3-methylmorpholin-4-yl]pyrimidin-2-yl]phenyl]urea] | 6.72
17 | CCNC(=O)Nc1ccc(-c2nc(N3CCOC[C@@H]3C)cc(C3(S(=O)(=O)C4CCCCC4)CC3)n2)cc1 [Example 26b, 3-[4-[4-(1-cyclohexylsulfonylcyclopropyl)-6-[(3S)-3-methylmorpholin-4-yl]pyrimidin-2-yl]phenyl]-1-ethylurea] | 3.9
18 | C[C@H]1COCCN1c1cc(C2(S(=O)(=O)C3CCCCC3)CC2)nc(-c2ccc(NC(=O)NCCN(C)C)cc2)n1 [Example 26c, 1-[4-[4-(1-cyclohexylsulfonylcyclopropyl)-6-[(3S)-3-methylmorpholin-4-yl]pyrimidin-2-yl]phenyl]-3-(2-dimethylaminoethyl)urea] | 119

Continued by falling IC50, values first:

Row | IC50 [nM] | SMILES
19 | 1140 | C[C@H]1COCCN1c1cc(C2(S(=O)(=O)c3ccc(Cl)cc3)CCOCC2)nc(-c2ccc(NC(=O)NCCN(C)C)cc2)n1 [Example 23k, 1-[4-[4-[4-(4-chlorophenyl)sulfonyloxan-4-yl]-6-[(3S)-3-methylmorpholin-4-yl]pyrimidin-2-yl]phenyl]-3-(2-dimethylaminoethyl)urea]
20 | 54.7 | Cc1csc(S(=O)(=O)C2(c3cc(N4CCOC[C@@H]4C)nc(-c4ccc(NC(=O)NCCN(C)C)cc4)n3)CC2)n1 [Example 25f, 3-(2-dimethylaminoethyl)-1-[4-[4-[(3S)-3-methylmorpholin-4-yl]-6-[1-[(4-methyl-1,3-thiazol-2-yl)sulfonyl]cyclopropyl]pyrimidin-2-yl]phenyl]urea]
21 | 31.4 | CNC(=O)Nc1ccc(-c2nc(N3CCOC[C@@H]3C)cc(C3(S(=O)(=O)c4ccc(Cl)cc4)CCOCC3)n2)cc1 [Example 23j, 1-[4-[4-[4-(4-chlorophenyl)sulfonyloxan-4-yl]-6-[(3S)-3-methylmorpholin-4-yl]pyrimidin-2-yl]phenyl]-3-methylurea]
22 | 25.4 | C[C@H]1COCCN1c1cc(C2(S(=O)(=O)C3CC3)CCOCC2)nc(-c2ccc(NC(=O)Nc3cnn(C)c3)cc2)n1 [Example 23i, 1-[4-[4-(4-cyclopropylsulfonyloxan-4-yl)-6-[(3S)-3-methylmorpholin-4-yl]pyrimidin-2-yl]phenyl]-3-(1-methylpyrazol-4-yl)urea]
23 | 19.9 | CNC(=O)Nc1ccc(-c2nc(N3CCOC[C@@H]3C)cc(C3(S(=O)(=O)C4CC4)CCOCC3)n2)cc1 [Example 23f, 1-[4-[4-(4-cyclopropylsulfonyloxan-4-yl)-6-[(3S)-3-methylmorpholin-4-yl]pyrimidin-2-yl]phenyl]-3-methylurea]
24 | 8.76 | C[C@H]1COCCN1c1cc(C2(S(=O)(=O)C3CC3)CCOCC2)nc(-c2ccc(NC(=O)NC3CC3)cc2)n1 [Example 23e, 3-cyclopropyl-1-[4-[4-(4-cyclopropylsulfonyloxan-4-yl)-6-[(3S)-3-methylmorpholin-4-yl]pyrimidin-2-yl]phenyl]urea]
25 | 8.08 | C[C@H]1COCCN1c1cc(C2(S(=O)(=O)C3CC3)CCOCC2)nc(-c2ccc(NC(=O)NCCO)cc2)n1 [Example 23h, 1-[4-[4-(4-cyclopropylsulfonyloxan-4-yl)-6-[(3S)-3-methylmorpholin-4-yl]pyrimidin-2-yl]phenyl]-3-(2-hydroxyethyl)urea]
26 | 5.76 | Cc1csc(S(=O)(=O)C2(c3cc(N4CCOC[C@@H]4C)nc(-c4ccc(NC(=O)Nc5ccc(C(F)(F)F)cc5)cc4)n3)CC2)n1 [Example 25j, 1-[4-[4-[(3S)-3-methylmorpholin-4-yl]-6-[1-[(4-methyl-1,3-thiazol-2-yl)sulfonyl]cyclopropyl]pyrimidin-2-yl]phenyl]-3-[4-(trifluoromethyl)phenyl]urea]
27 | 5.34 | C[C@H]1COCCN1c1cc(C2(S(C)(=O)=O)CCOCC2)nc(-c2ccc(NC(=O)Nc3cnn(C)c3)cc2)n1 [Example 23d, 1-[4-[4-[(3S)-3-methylmorpholin-4-yl]-6-(4-methylsulfonyloxan-4-yl)pyrimidin-2-yl]phenyl]-3-(1-methylpyrazol-4-yl)urea]
28 | 0.993 | CCCNC(=O)Nc1ccc(-c2nc(N3CCOC[C@@H]3C)cc(C3(S(=O)(=O)c4nc(C)cs4)CC3)n2)cc1 [Example 25h, 3-[4-[4-[(3S)-3-methylmorpholin-4-yl]-6-[1-[(4-methyl-1,3-thiazol-2-yl)sulfonyl]cyclopropyl]pyrimidin-2-yl]phenyl]-1-propylurea]
